Source: ChEMBL document CHEMBL4020735, “Design, synthesis, and evaluation of multitarget-directed ligands against Alzheimer's disease based on the fusion of donepezil and curcumin” (Bioorg Med Chem, 2017)
Calls of active or inactive are those of the source. The rule behind the calls is not given here.

Columns and labels:
Acetylcholinesterase = Acetylcholinesterase (Electrophorus electricus, UniProt O42275)
Description: Inhibition of electric eel AChE using acetylthiocholine iodide as substrate preincubated for 15 mins followed by substrate addition by spectrophotometric analysis

Cholinesterase = Cholinesterase (Equus caballus, UniProt P81908)
Description: Inhibition of equine serum BuChE using acetylthiocholine iodide as substrate preincubated for 15 mins followed by substrate addition by spectrophotometric analysis

[1] = Permeability of the compound at […] after 10 hrs by PAMPA; assay type: physicochemical; details: read-out: permeability
[2] = Antioxidant activity assessed as trolox equivalent of APPH-induced radical scavenging activity at 0.117 to 10 uM preincubated for 10 mins followed by AAPH addition measured every minute for 90 mins by ORAC fluorescein assay; assay type: functional
[3] = biological target: Amyloid-beta precursor protein (Homo sapiens) (UniProt P05067); assay: Inhibition of self-mediated aggregation of amyloid beta (1 to 42 residues) (unknown origin) at 20 uM after 48 hrs by Thioflavin T fluorescence assay relative to control
[4] = Metal chelating activity of compound assessed as compound-Cu2+ complex formation at 20 uM after 30 mins by UV-Vis spectrophotometric analysis; assay type: functional
[5] = biological target: Acetylcholinesterase (Electrophorus electricus) (UniProt O42275); assay: Mixed type inhibition of electric eel AChE using acetylthiocholine iodide as substrate preincubated for 15 mins followed by substrate addition by Lineweaver-Burk plot analysis
[6] = Metal chelating activity of compound assessed as compound-Zn2+ complex formation at 20 uM after 30 mins by UV-Vis spectrophotometric analysis; assay type: functional
[7] = Metal chelating activity of compound assessed as compound-Fe2+ complex formation at 20 uM after 30 mins by UV-Vis spectrophotometric analysis; assay type: functional

Sequence of Amyloid-beta precursor protein (Homo sapiens) (P05067 whole entry, the tested form may be a part): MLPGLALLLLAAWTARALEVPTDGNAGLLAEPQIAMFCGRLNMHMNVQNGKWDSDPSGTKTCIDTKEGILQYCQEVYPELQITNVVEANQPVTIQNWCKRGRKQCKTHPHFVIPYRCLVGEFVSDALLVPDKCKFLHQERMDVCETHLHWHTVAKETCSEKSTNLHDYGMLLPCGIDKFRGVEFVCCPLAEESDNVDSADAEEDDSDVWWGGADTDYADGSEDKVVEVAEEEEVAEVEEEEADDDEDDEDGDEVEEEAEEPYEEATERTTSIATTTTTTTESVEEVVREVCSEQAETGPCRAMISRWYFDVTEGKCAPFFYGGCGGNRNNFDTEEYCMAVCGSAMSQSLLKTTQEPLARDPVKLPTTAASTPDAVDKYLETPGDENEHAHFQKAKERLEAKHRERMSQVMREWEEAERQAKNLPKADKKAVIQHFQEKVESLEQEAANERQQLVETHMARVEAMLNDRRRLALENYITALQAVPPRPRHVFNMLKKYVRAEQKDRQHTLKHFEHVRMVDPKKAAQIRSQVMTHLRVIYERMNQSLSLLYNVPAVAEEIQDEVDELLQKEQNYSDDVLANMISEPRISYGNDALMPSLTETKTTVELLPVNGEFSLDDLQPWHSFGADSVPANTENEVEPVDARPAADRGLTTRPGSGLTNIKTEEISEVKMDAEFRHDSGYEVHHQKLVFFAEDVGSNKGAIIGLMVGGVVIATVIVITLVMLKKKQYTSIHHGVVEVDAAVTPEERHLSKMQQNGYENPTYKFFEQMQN
Sequence of Acetylcholinesterase (O42275 whole entry): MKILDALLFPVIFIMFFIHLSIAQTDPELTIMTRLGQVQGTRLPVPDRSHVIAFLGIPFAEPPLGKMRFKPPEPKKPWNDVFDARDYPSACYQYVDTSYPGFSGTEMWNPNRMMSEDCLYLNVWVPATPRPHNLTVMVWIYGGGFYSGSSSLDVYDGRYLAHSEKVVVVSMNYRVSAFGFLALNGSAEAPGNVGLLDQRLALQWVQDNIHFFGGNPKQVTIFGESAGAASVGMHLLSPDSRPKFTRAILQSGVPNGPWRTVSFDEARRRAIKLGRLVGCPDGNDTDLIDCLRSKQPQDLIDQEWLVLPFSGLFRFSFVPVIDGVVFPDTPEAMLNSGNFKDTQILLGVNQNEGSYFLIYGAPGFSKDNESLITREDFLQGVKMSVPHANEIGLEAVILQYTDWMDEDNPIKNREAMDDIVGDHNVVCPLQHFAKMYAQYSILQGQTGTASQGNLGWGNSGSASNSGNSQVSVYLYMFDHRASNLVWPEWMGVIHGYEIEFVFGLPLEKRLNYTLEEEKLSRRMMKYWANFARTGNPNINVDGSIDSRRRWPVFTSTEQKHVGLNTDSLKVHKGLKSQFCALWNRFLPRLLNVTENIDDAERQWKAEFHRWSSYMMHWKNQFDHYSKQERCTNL
Sequence of Cholinesterase (P81908 whole entry): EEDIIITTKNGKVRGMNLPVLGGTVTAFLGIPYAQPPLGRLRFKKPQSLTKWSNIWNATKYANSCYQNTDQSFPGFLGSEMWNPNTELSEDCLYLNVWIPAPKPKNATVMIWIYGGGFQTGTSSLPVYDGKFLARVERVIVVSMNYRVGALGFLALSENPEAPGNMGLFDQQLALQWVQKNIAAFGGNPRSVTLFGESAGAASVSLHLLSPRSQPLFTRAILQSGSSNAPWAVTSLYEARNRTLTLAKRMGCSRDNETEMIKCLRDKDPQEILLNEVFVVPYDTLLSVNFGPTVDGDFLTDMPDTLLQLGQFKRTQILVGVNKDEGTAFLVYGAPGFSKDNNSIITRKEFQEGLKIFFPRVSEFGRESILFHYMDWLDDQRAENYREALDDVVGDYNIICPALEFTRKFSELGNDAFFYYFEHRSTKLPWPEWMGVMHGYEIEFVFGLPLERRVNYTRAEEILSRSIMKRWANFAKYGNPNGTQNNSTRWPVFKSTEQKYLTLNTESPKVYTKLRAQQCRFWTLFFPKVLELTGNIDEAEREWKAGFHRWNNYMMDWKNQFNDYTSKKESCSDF
Sequence of Acetylcholinesterase (Electrophorus electricus) (O42275 24-633 limits assumed): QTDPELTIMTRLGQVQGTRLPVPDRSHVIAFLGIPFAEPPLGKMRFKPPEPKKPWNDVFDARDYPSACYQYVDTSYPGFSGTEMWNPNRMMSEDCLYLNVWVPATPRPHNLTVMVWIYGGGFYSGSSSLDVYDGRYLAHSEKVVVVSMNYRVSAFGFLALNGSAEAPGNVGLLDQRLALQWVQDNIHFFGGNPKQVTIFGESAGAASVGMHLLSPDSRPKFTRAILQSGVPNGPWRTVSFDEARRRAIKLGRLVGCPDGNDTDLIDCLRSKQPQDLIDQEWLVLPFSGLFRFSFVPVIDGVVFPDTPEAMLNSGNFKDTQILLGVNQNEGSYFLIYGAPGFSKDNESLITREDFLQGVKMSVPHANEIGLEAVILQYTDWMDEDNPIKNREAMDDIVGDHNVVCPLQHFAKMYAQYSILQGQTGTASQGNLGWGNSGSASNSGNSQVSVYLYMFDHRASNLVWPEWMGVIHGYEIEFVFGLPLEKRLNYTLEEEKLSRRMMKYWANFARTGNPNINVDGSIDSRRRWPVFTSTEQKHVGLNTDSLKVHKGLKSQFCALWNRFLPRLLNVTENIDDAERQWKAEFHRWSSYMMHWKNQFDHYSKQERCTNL

SMILES	IC50 (Acetylcholinesterase) [µM]	IC50 (Cholinesterase) [µM]	also measured
COc1ccc(C(=O)C(CCC2CCN(Cc3cccc(C)c3)CC2)C(C)=O)cc1OC (stereo not given)	0.263	2	–
COc1ccc(C(=O)CC(=O)CC2CCN(Cc3cccc(C)c3)CC2)cc1O	0.228	9.78	Papp at 10 h [1]: 11.3 ×10⁻⁶ cm/s; Activity [2]: 2.49 equiv; inhibition [3]: 30.4%
COc1cccc(C(=O)C(CC2CCN(Cc3ccccc3)CC2)C(C)=O)c1 (stereo not given)	1.78	14.4	–
COc1ccc(C(=O)C(CCC2CCN(Cc3cccc(C)c3)CC2)C(C)=O)cc1O (stereo not given)	0.621	16.6	–
COc1cc(C(=O)C(CCC2CCN(Cc3ccccc3)CC2)C(C)=O)ccc1O (stereo not given)	2.05	15.6	–
COc1cc(C(=O)C(CCC2CCN(Cc3cccc(C)c3)CC2)C(C)=O)ccc1O (stereo not given)	0.961	3.36	–
COc1cccc(C(=O)C(CCC2CCN(Cc3cccc(C)c3)CC2)C(C)=O)c1 (stereo not given)	0.555	1.85	–
COc1ccc(C(=O)C(CCC2CCN(Cc3ccccc3)CC2)C(C)=O)cc1OC (stereo not given)	0.373	2.82	–
COc1ccc(C(=O)C(CC2CCN(Cc3ccccc3)CC2)C(C)=O)cc1OC (stereo not given)	2.55	20.8	–
COc1ccc(C(=O)CC(=O)CC2CCN(Cc3ccccc3)CC2)cc1OC	0.149	2.33	Papp at 10 h [1]: 12.1 ×10⁻⁶ cm/s; Activity [2]: 1.1 equiv; inhibition [3]: 22%
COc1ccc(C(=O)C(CCC2CCN(Cc3ccccc3)CC2)C(C)=O)cc1 (stereo not given)	0.517	1.64	–
COc1cc(/C=C/C(=O)CC(=O)/C=C/c2ccc(O)c(OC)c2)ccc1O	–	–	Activity [2]: 2.52 equiv
COCOc1ccc(C(=O)C(CCC2CCN(Cc3cccc(C)c3)CC2)C(C)=O)cc1OC (stereo not given)	0.34	3.09	–
COc1ccc(C(=O)CC(=O)CC2CCN(Cc3ccccc3)CC2)cc1O	0.187	12.4	Activity [4]: Active; inhibition [5]: Active; Activity [6]: inactive; Activity [7]: Active; Papp at 10 h [1]: 11.8 ×10⁻⁶ cm/s; Activity [2]: 3.07 equiv; inhibition [3]: 45.3%
